Laboratory results reported in patent publication US8236339B2, “Therapeutic delivery of carbon monoxide” (priority 2001, dated 2012).
“Also recorded” adds a separate entry of the source.

What was measured:
[1] = system: Rat vascular smooth muscle cells; experiment: Cell viability of vascular smooth muscle cells (colorimetric assay); assay type: cell-based
Description: Rat vascular smooth muscle cells were obtained from the Coriell Cell Repository (Camden, N.J., USA) and grown in Dulbecco's […] (MEM) supplemented with 20% foetal calf serum, 2×MEM vitamins, 2×MEM non-essential and essential amino acids, penicillin (100 units/ml) and streptomycin (0.1 mg/ml). Confluent cells were treated with different concentrations of metal carbonyl (introduced as DMSO solution—see section B) for various times and cell viability was assessed using a colorimetric assay kit from Promega (Madison, Wis., USA) as previously described (47) after 3 or 24 h incubation, or after 3 h exposure to the agents followed by 21 h incubation in complete media. Results are expressed as the mean±s.e.m. of 6 independent experiments and differences were considered statistically significant at P<0.05 (*).

isolated rat hearts = conditions: for effect on L-NAME-mediated vasoconstriction / rise in CPP: L-NAME 25 μM perfusion
Description: Langendorff heart preparations were performed using male Lewis rats (300-350 g) as previously described by our group (35). […] (pH 7.4). Coronary perfusion pressure (CPP), a parameter indicative of coronary vessel contractility, was continuously measured by a pressure transducer connected to the aortic cannula and data analyzed with an Acknowledge software (BIOPAC System Inc.).
Hearts removed either from control rats (vehicle-treated) or from animals that were pre-treated with the heme oxygenase-1 inducer hemin (75 μmol/kg, i.p.) the day before, were initially equilibrated for 20 min on the Langendorff apparatus and then perfused with L-NAME (25 μM final concentration) to elicit vasoconstriction. The extent of CPP increase by L-NAME was also monitored over time in hemin-treated animals that received a heme oxygenase inhibitor (SnPPIX, 40 μmol/kg) 1 h prior to heart excision and in control hearts that were perfused with buffer supplemented with [Mn2(CO)10] (13 μM final concentration). Since [Mn2(CO)10] releases CO only by photodissociation, Krebs buffer containing [Mn2(CO)10] was exposed to a cold light source immediately before entering the aortic cannula.

[2] = L-NAME-induced increase in mean arterial pressure in anaesthetised Lewis rats; assay type: in vivo, rat; conditions: L-NAME 30 μmol/kg i.v.; [Ru(CO)3Cl2]2 60 μmol/kg i.v. 1 h before; hemin 75 μmol/kg i.p. 24 h before; SnPPIX 40 μmol/kg i.p.
Description: Lewis rats (280-350 g) were anaesthetised by intramuscular injection of 1 ml/kg Hypnorm (fentanyl 0.315 mg/ml and fluanisone 10 mg/ml) followed 5 min later by an intraperitoneal injection of 5 mg/kg diazepam. Specially designed femoral artery and venous catheters were then surgically implanted as previously described (40). The arterial cannula was connected to a Grass pressure transducer and blood pressure monitored continuously using a polygraph recorder. Experiments were conducted on anaesthetized animals and recordings were made within 30 min of the surgical procedure.
Control rats (vehicle-treated) and animals that were pre-treated with hemin (75 μmol/kg, i.p) 24 h prior to blood pressure monitoring were then administered with an intravenous injection of 30 μmol/Kg L-NAME to elicit an increase in mean arterial pressure. The extent of blood pressure increase by L-NAME was also monitored over time in hemin-treated animals that received SnPPIX (40 μmol/kg, i.p.) and in control rats previously injected with [Ru(CO)3Cl2]2 (60 μmol/kg, i.v.). In these two groups, SnPPIX or [Ru(CO)3Cl2]2 were administered to animals 1 h prior to L-NAME injection.

[3] = system: deoxymyoglobin (deoxy-Mb); experiment: Myoglobin assay: conversion of deoxy-Mb to MbCO on direct addition of metal carbonyl; assay type: biochemical, horse; conditions: for MbCO formation / CO release when added directly to deoxy-Mb solution: direct addition to myoglobin solution (66 μM), no light
Description: The release of CO from metal carbonyl complexes was assessed spectrophotometrically by measuring the conversion of deoxymyoglobin (deoxy-Mb) to carbonmonoxy myoglobin (MbCO). MbCO has a distinctive absorption spectrum between 500 and 600 nm, and changes at 540 nm were used to quantify the amount of CO liberated. Myoglobin solutions (66 μM final concentration) were prepared freshly by dissolving the protein in 0.04 M phosphate buffer (pH 6.8). Sodium dithionite (0.1%) was added to convert myoglobin to deoxy-Mb prior to each reading. All the spectra were measured using a Helios a spectrophotometer.
Various metal carbonyl complexes were tested for their ability to elicit MbCO formation when added directly to a deoxy-Mb solution. To different extents, [Ru(CO)3Cl2]2, [Ru(CO)2(DMSO)2Cl2], [Ru(CO)3Cl2(cytosine)] and […] all released CO when added directly to the Mb solution.
The metal carbonyl complex was solubilized in DMSO (9.7 mM stock solution), aliquots of 2 to 32 μl were added directly to 1 ml of deoxy-Mb solutions (66 μM) and absorption spectrum determined immediately after mixing the samples by inversion.

[4] = system: aortic rings pre-contracted with phenylephrine; experiment: Relaxation of isolated aortic rings pre-contracted with phenylephrine; design: species or system rat; conditions: for vasodilatory effect on pre-contracted aortic rings (in words): consecutive additions; for % Relaxation, 1st addition / % Relaxation, 2nd addition / % Relaxation, 3rd addition: cumulative doses, phenylephrine 3 μM
Description: Transverse ring sections of thoracic aorta were isolated from male Lewis rats and suspended under a 2 g tension in an organ bath containing oxygenated Krebs-Henseleit buffer at 37° C. as previously described (23). The relaxation response to cumulative doses of metal carbonyl (dissolved in DMSO—see section 2) was assessed in aortic rings pre-contracted with phenylephrine (3 μM). Control rings were similarly treated by adding equal doses of DMSO (vehicle) to the organ bath.

[5] = Systemic blood pressure and heart rate in anaesthetised Sprague-Dawley rats; assay type: in vivo, rat; conditions: for HR, 60 μmol.kg^−1 / MAP, 60 μmol.kg^−1: directly after i.v. bolus 60 μmol/kg (cumulative 100); for HR, Baseline / MAP, Baseline: just before infusion of the compound
Description: Adult male Sprague-Dawley rats (280-350 g, 8-10 weeks of age) were bred in-house at the Northwick Park Institute for Medical Research (Harrow, UK). Rats were housed in groups of 3 in cages under a 12 h cycle of day/night, with free access to drinking water and fed ad libitum. All surgical procedures were performed in compliance with U.K. Home Office regulations. Rats were anaesthetised in a polycarbonate chamber in a stream of Enflurane™ (Abbot, UK) in oxygen before being transferred onto a mask and continuously supplied with Enflurane™ throughout the experiment with an anaesthetic machine (Aimed, UK). During the surgical procedure the rats were kept at a constant body temperature of 37° C. using a heat pad positioned underneath the operating surface. Specially designed femoral artery and venous catheters were then surgically implanted as previously described (see ref. 40). The catheter in the artery was connected via a luer connector and a three-way tap to a pressure transducer (Gould model P23ID, Statham, USA) for continuous mean arterial pressure (MAP) and heart rate (HR) monitoring. A purpose-built tail-cuff pressure transducer (ADInstruments, UK) was also placed on the tail of the rat and pressure transducer and tail cuff were connected to a polygraph recorder (Grass, Model 7D, Astra-med, UK) pre-calibrated in millimeters of mercury (mmHg). An analogue output provided data for a computer-based data acquisition system (PowerLab™, ADInstruments, UK). The computer-based system was set to record mean arterial pressure (MAP), in mmHg, and heart rate (HR), in beats/min (bpm), for the duration of the experiment. […] Once a stable pressure had been reached, each catheter was flushed with saline containing heparin and no further changes were made to the anaesthetic supply. Ru(CO)3Cl(glycinato) (CO-RM-3) was prepared in stock solutions of 20, 60 and 120 μmoles·ml^−1 by solubilizing the compound in saline. […] CO-RM-3 (or the negative control) was then infused into the animal via the femoral vein catheter as a bolus so that the final concentration infused was 10, 30 or 60 μmoles·kg^−1 body weight. Throughout the experiment MAP and HR were continuously recorded and monitored. Although concentrations of 10, 30 and 60 μmoles·kg^−1 were infused into each animal, the resulting concentrations in the animal were cumulative. Therefore, the final concentration attained in the animal was 10, 40 and 100 μmoles·kg^−1, respectively.
The results are presented in Table 2, where the data shown represents samples taken at baseline (just before infusion of the compound) and directly after administration of 10, 30 and 60 μmoles·kg^−1 of the compound. All data are mean i SEM. n=3 independent experiments. *P<0.05 vs. baseline.

[6] = directly after i.v. bolus 10 μmol/kg
[7] = directly after i.v. bolus 30 μmol/kg (cumulative 40)

O.[Cl][Ru]([Cl])[Cl] [RuCl3, ruthenium(III) chloride hydrate, reference compound]
decrease in cell viability over time ([1]; equivalent molar concentrations of ruthenium): did not cause any appreciable decrease in cell viability

COC(=O)[C@@H](N)CCCNC(=N)N[N+](=O)[O-] [L-NAME, N^G-nitro-L-arginine methyl ester]
maximum increase in CPP (isolated rat hearts; L-NAME 25 μM, after 30 min): 3 fold
effect on L-NAME-induced increase in blood pressure [2]: rapid and significant increase in blood pressure

[C-]#[O+].[C-]#[O+].[C-]#[O+].[C-]#[O+].[C-]#[O+].[C-]#[O+].[Cl][Ru][Cl].[Cl][Ru][Cl] [[Ru(CO)3Cl2]2, tricarbonyldichlororuthenium (II) dimer]
moles of CO liberated for each mole of compound ([3]; 9.7 mM DMSO stock, 2 to 32 μl added to 1 ml deoxy-Mb 66 μM, linear regression of MbCO saturation curve): approximately 0.7 moles
MbCO formation / CO release when added directly to deoxy-Mb solution [3]: released CO
cell viability ([1]; 3 h exposure followed by additional 21 h incubation in complete medium): well preserved
cytotoxicity ([1]; 3 h treatment, 0-420 μM final concentration): did not promote any detectable cytotoxicity
loss in cell viability ([1]; prolonged exposure (24 h), very high concentrations (>400 μM)): > 50%
extent of relaxation after the first addition, more than control ([4]; 222 μM final concentration): 45%
phenylephrine-induced contraction after extensive washing ([4]; after extensive washing, restored in control but not in treated vessels): produces long-lasting effects
vasodilatory effect on pre-contracted aortic rings (in words) [4]: rapid and significant vasodilatation
% Relaxation, 1st addition [4]: 49.9 ± 2.7 %
% Relaxation, 2nd addition [4]: 66.2 ± 3.2 %
% Relaxation, 3rd addition [4]: 74.1 ± 4.1 %
effect on L-NAME-induced increase in blood pressure [2]: markedly suppressed

[Ru(CO)2(DMSO)2Cl2]
MbCO formation / CO release when added directly to deoxy-Mb solution [3]: released CO
vasodilatory effect on pre-contracted aortic rings (in words) [4]: produced vasodilatation although the effect was less pronounced compared to [Ru(CO)3Cl2]2
% Relaxation, 1st addition [4]: 1.6%
% Relaxation, 2nd addition [4]: 16%
% Relaxation, 3rd addition [4]: 35%

C=Cc1c2[n-]c(c1C)/C=c1\[n-]/c(c(C)c1C=C)=C\c1[n-]c(c(CCC(=O)O)c1C)C=c1[n-]/c(c(C)c1CCC(=O)O)=C\2.[Sn+4] [SnPPIX, tin protoporphyrin IX]
effect on L-NAME-mediated vasoconstriction / rise in CPP (isolated rat hearts): the effect of hemin was completely reversed
effect on L-NAME-induced increase in blood pressure [2]: totally reversed

[Fe(SPh)2(H2NCH2CH2NH2)(CO)2]
MbCO formation / CO release when added directly to deoxy-Mb solution [3]: No MbCO was detected
vasodilatory effect on pre-contracted aortic rings (in words) [4]: less evident
% Relaxation, 1st addition [4]: 11%
% Relaxation, 2nd addition [4]: 24.6%
% Relaxation, 3rd addition [4]: 29.3%

[Fe(SPh)2(2,2′-bipyridine)(CO)2]
MbCO formation / CO release when added directly to deoxy-Mb solution [3]: did not release any detectable CO to myoglobin; also recorded: No MbCO was detected
vasodilatory effect on pre-contracted aortic rings (in words) [4]: very effective in promoting vasorelaxation
% Relaxation, 1st addition [4]: 50.8%
% Relaxation, 2nd addition [4]: 60.5%
% Relaxation, 3rd addition [4]: 75%

[Ru(CO)3Cl2(cytosine)]
MbCO formation / CO release when added directly to deoxy-Mb solution [3]: released CO
vasodilatory effect on pre-contracted aortic rings (in words) [4]: did not demonstrate any effect
% Relaxation, 1st addition [4]: 3.2%
% Relaxation, 2nd addition [4]: 10.3%
% Relaxation, 3rd addition [4]: 12.6%

CS(C)=O.CS(C)=O.CS(C)=O.CS(C)=O.[Cl][Ru][Cl] [Cis-RuCl2(DMSO)4, reference compound]
effects on HR or MAP (in words) ([5]; 10, 30 or 60 μmoles·kg^−1): no significant effects on either HR or MAP
marginal increase in MAP during the administration of each bolus ([5]; believed to be a volume effect, also seen with saline): 5.5±1 mmHg
HR, 10 μmol.kg^−1 [5, 6]: 255 ± 6 bpm
MAP, 10 μmol.kg^−1 [5, 6]: 82 ± 4 mmHg
HR, 30 μmol.kg^−1 [5, 7]: 256 ± 8 bpm
MAP, 30 μmol.kg^−1 [5, 7]: 79 ± 5 mmHg
HR, 60 μmol.kg^−1 [5]: 256±9 bpm
MAP, 60 μmol.kg^−1 [5]: 81±4 mmHg
HR, 60 μmol.kg^−1 ([5]; listed as Cts-RuCl2(DMSO)4): 256 ± 9 bpm
MAP, 60 μmol.kg^−1 ([5]; listed as Cts-RuCl2(DMSO)4): 81± 4 mmHg
HR, Baseline [5]: 257±7 bpm
MAP, Baseline [5]: 80±2 mmHg
HR, Baseline ([5]; listed as Cts-RuCl2(DMSO)4): 257 ± 7 bpm
MAP, Baseline ([5]; listed as Cts-RuCl2(DMSO)4): 80 ± 2 mmHg

manganese chloride
effect on L-NAME-mediated vasoconstriction / rise in CPP (isolated rat hearts): had no effect on myocardial CPP
